Assays:
[1] = test system: T cell lines and clones isolated from peripheral blood; assay: Functional analysis (cytokine secretion) of T cell lines and clones sorted with α-GalCer treated CD1d-Fc; type: cell-based, human; settings: in the presence of antigen
From the text: T cell lines and clones stained with the α-GalCer treated CD1d-Fc aggregates were isolated from peripheral blood by flow cytometric cell sorting and limiting dilution cloning, and cultured using standard techniques. […] Cytokine secretion was enhanced in the presence of α-GalCer.

14S.6.A hybridoma = assay: Plate-bound mCD1d fusion protein hybridoma stimulation assay (IL-2 ELISA); type: cell-based, mouse; settings: 14S.6.A diverse TCR hybridoma; plate-bound mCD1d-IgGFc2a fusion protein preincubated with lipid antigen
Summary of the method: (§1)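 IL-2 (pg/ml) by sandwich ELISA, regressed on a murine IL-2 standard curve, reports stimulation of hybridomas (1×10^5/well, 16-20 hr, 37° C) on immobilized mCD1d fusion protein pre-pulsed with lipid, 40:1 molar ratio by default, 24-48 hr at 37° C.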

KT/7 hybridoma = assay: as above; type: cell-based, mouse; settings: KT/7 NKT hybridoma; plate-bound mCD1d-IgGFc2a fusion protein preincubated with lipid antigen
Summary of the method: as §1

XV104 hybridoma = assay: as above; type: cell-based, mouse; settings: XV104 diverse TCR hybridoma; plate-bound mCD1d-IgGFc2a fusion protein preincubated with lipid antigen
Summary of the method: as §1

Row | Compound | cytokine secretion in response to CD1d-transfected antigen presenting cells [1] | IL-2 secretion (14S.6.A hybridoma) | IL-2 secretion (KT/7 hybridoma) | IL-2 secretion (XV104 hybridoma)
1 | CCCCCCCCCCCCCCCCCCCCCCCCCC(=O)N[C@@H](CO[C@H]1O[C@H](CO)[C@H](O)[C@H](O)[C@H]1O)[C@H](O)[C@H](O)CCCCCCCCCCCCCC [α-GalCer, α-galactosylceramide] | enhanced | 0 (A “0” indicates a mean of less than 50 pg/ml IL-2 was secreted) | +++ (“+++” indicates greater than 1000 pg/ml IL-2) | 0 (A “0” indicates a mean of less than 50 pg/ml IL-2 was secreted)
2 | phosphatidylinositol [PI] |  | + (“+” indicates 50-250 pg/ml) | 0 (A “0” indicates a mean of less than 50 pg/ml IL-2 was secreted) | 0 (A “0” indicates a mean of less than 50 pg/ml IL-2 was secreted)
3 | unglycosylated ceramide |  | 0 (A “0” indicates a mean of less than 50 pg/ml IL-2 was secreted) | 0 (A “0” indicates a mean of less than 50 pg/ml IL-2 was secreted) | 0 (A “0” indicates a mean of less than 50 pg/ml IL-2 was secreted)
4 | β-galactosylceramide [β-GalCer] |  | 0 (A “0” indicates a mean of less than 50 pg/ml IL-2 was secreted) | 0 (A “0” indicates a mean of less than 50 pg/ml IL-2 was secreted) | 0 (A “0” indicates a mean of less than 50 pg/ml IL-2 was secreted)
